This note sets out measurements from paper PMC7927014, “Novel Small Molecule Hsp90/Cdc37 Interface Inhibitors Indirectly Target K-Ras-Signaling” (Cancers, 2021).

One assay deals with K-RasG12V nanoclustering. Briefly: K-RasG12V nanoclustering-FRET (FLIM-FRET) in HEK cells. It is filed as cell-based. The conditions noted are these: 24 h, conglobatin A 2 μM, salinomycin 1.3 μM, 17-AAG 2 μM, CAY10585 10 μM, hit compounds indicated concentrations. The procedure:
In total, 80,000 HEK cells were seeded in 12-well plates containing sterilized 16-mm coverslips and 1 mL medium. The next day, the cells were transfected using jetPRIME or FuGENE HD transfection reagent. For the donor fluorophore-only samples, the cells were transfected with 500 ng mGFP-tagged RasG12V plasmid. For the nanoclustering-FRET pair samples, the cells were transfected with both the donor and acceptor constructs, i.e., pmGFP- and pmCherry- RasG12V at a plasmid ratio of 1:3, respectively, and a total of 800 ng plasmids. The next day, the cells were treated with either 0.1% DMSO vehicle control or the indicated concentrations of compounds diluted in DMEM or RPMI medium for 24 h. For the gene silencing studies, the cells were transfected with the indicated amounts of siRNAs, together with the FRET pair constructs. The plasmids and siRNA were diluted in the same jetPRIME transfection buffer, followed by the addition of jetPRIME. […] The lifetime of the mGFP donor fluorophore was measured using a fluorescence microscope (Zeiss AXIO Observer D1) equipped with a fluorescence lifetime imaging attachment (Lambert Instruments), as described previously in detail. The apparent FRET efficiency (Eapp) was calculated as Eapp = (1 − τDA/τD) × 100%, with the measured fluorescence lifetimes τDA of the FRET sample and the τD of the donor-only sample.

The next assay has as its system H-RasG12V nanoclustering. Briefly: H-RasG12V nanoclustering-FRET (FLIM-FRET) in HEK cells. It is filed as cell-based. The conditions noted are these: 24 h, conglobatin A 2 μM, salinomycin 1.3 μM, CAY10585 10 μM. The procedure:
In total, 80,000 HEK cells were seeded in 12-well plates containing sterilized 16-mm coverslips and 1 mL medium. The next day, the cells were transfected using jetPRIME or FuGENE HD transfection reagent. For the donor fluorophore-only samples, the cells were transfected with 500 ng mGFP-tagged RasG12V plasmid. For the nanoclustering-FRET pair samples, the cells were transfected with both the donor and acceptor constructs, i.e., pmGFP- and pmCherry- RasG12V at a plasmid ratio of 1:3, respectively, and a total of 800 ng plasmids. The next day, the cells were treated with either 0.1% DMSO vehicle control or the indicated concentrations of compounds diluted in DMEM or RPMI medium for 24 h. For the gene silencing studies, the cells were transfected with the indicated amounts of siRNAs, together with the FRET pair constructs. The plasmids and siRNA were diluted in the same jetPRIME transfection buffer, followed by the addition of jetPRIME. After 48 h of transfection, the cells were fixed in 4% paraformaldehyde for 10 to 15 min, before being mounted onto slides with Mowiol 4–88 (cat. no. 81381, Sigma-Aldrich). The lifetime of the mGFP donor fluorophore was measured using a fluorescence microscope (Zeiss AXIO Observer D1) equipped with a fluorescence lifetime imaging attachment (Lambert Instruments), as described previously in detail. The apparent FRET efficiency (Eapp) was calculated as Eapp = (1 − τDA/τD) × 100%, with the measured fluorescence lifetimes τDA of the FRET sample and the τD of the donor-only sample.

A further assay has as its system Gal3. Put plainly: Western blotting of galectin-3. It is filed as cell-based. The conditions noted are these: Western blot, 24 h; K-RasG12V-transfected HEK and MDA-MB-231 cells. The procedure:
The cells were trypsinized, washed with PBS, and lysed in RIPA buffer (cat no. 89900, ThermoFisher Scientific) containing protease and phosphatase inhibitors (cat. no. A32959, ThermoFisher Scientific) and 1 mM phenylmethylsulfonyl fluoride (PMSF). The cells in the RIPA buffer were placed on ice for 20 min, and were then sonicated in ice cold water for 5 min. The lysates were centrifuged at 4 °C, and their protein was quantified using a BCA kit (cat. no. 23225, ThermoFisher Scientific). Equal amounts of protein were separated by 10% SDS-PAGE, and were then transferred onto a nitrocellulose membrane (cat. no. NBA 083C001EA, Protran) using a wet transfer system (Bio-Rad) or semidry Transferblot Turbo Transfer System (Bio-Rad). After the transfer, the membranes were blocked for 30 min in 5% skimmed milk dissolved in 1× TBST, and then incubated with 1:2000 primary antibodies in 5% BSA in TBST at 4 °C overnight. […]
The next day, the membranes were washed three times in TBST for 10 min, and then incubated with secondary antibodies (1:5000) diluted in 5% skimmed milk in TBST for 1 h at RT. […] The protein bands were detected with a ChemiDoc MP instrument (Bio-Rad) after treatment with an ECL reagent (cat. no. 170-5061, BioRad). […]
On the technique in general: Immunoblotting shows a protein as a band on a membrane.

The target of assay [1] is T1, Hsp90/Cdc37 (Homo sapiens, UniProt P07900).
T1 construct: The Hsp90/Cdc37 split Renilla luciferase assay using the full length Hsp90 for the compound screening was described previously; expressed in transfected cells; host or cells: HEK293 EBNA cells, cleared lysates
Briefly: Hsp90/Cdc37 split Renilla luciferase assay, full length Hsp90 (cell lysate; IC50 and 20 μM validation). It is filed as biochemical. As to conditions: MolPort Screening-3, tested concentration of drugs 20 μM. The procedure:
(§1) In the second in silico screening of the FIMM database, we employed the four identified chemical scaffolds (Figure S2B) for the visual inspection of the FIMM compound library. […] All of the purchased compounds were validated in vitro at 20 μM using the split Renilla luciferase assay.
(§2) The Hsp90/Cdc37 split Renilla luciferase assay using the full length Hsp90 for the compound screening was described previously. […] After 48 h, the cells were trypsinized and washed with PBS. The harvested cells were lysed in 1 mL of the 1x lysis buffer provided in the Renilla Luciferase Reporter Assay System Kit from Promega (cat. E2820), and were incubated on ice for 10 min. The cell lysates were then cleared by centrifugation at 13,000× g for 1 min. […] After this, the screening/test compounds or DMSO—as indicated—were added to each well. In total, 5 µL NRL-Hsp90- or NRL-N-Hsp90-lysate was added to each well, one row at a time. Subsequently, the plate was incubated for 5 min at room temperature (RT). […] Just before the reading, 20 µL assay buffer containing 2× Renilla luciferase substrate (coelenterazine) was added. For the FIMM screening, sample wells were read on a PHERAstar plate reader (BMG LABTECH) at a gain level of 4000, after 10 s shaking, using a hypomorph of NRL-Hsp90. For the subsequent validations of the compounds, sample wells with the above-described assay constructs were read using a synergy H1 Hybrid Multi-Mode reader (BioTek) in the luminescence detection mode, as described previously in detail.

The subject of assay [2] is Hsp90/Cdc37. Put plainly: FIMM screening in split Renilla luciferase assay with hypomorphic NRL-Hsp90 construct, 20 μM. It is filed as biochemical. The procedure:
as §1, §2

For another assay, the target named is T2, Hsp90α (N-terminal) (Homo sapiens, UniProt P07900).
T2 construct: purchased BPS Bioscience 50298
Put plainly: Hsp90 N-terminal ATP-binding site competition assay (FITC-geldanamycin fluorescence polarization). The procedure: The reaction was initiated by adding 35 ng/μL purified recombinant Hsp90α, and was incubated at RT with slow shaking for 2 h. All of the reactions were performed in a black, low binding NUNC microtiter plate, included in the kit, and the total reaction volume was 50 μL. The enzyme control was measured without the test compound, and the enzyme background control was measured without the test compound or Hsp90α. […] All of the controls and the blank contained 10% DMSO, as did all of the samples of the test compounds. All of the samples were analyzed as duplicates. […] The blank value was subtracted from all of the other values, and the fluorescence polarization was determined as:(1) mP = ((III − I⊥)/(III+ I⊥)) × 1000 where III is the intensity of the parallel, and I┴ the intensity of the perpendicular polarized light.

A further assay concerns MDA-MB-231 cells. Briefly: 2D cell proliferation (alamarBlue). As to conditions: Homo sapiens, MDA-MB-231, 72 h. Type of assay: cell-based. The procedure: Per well, 500–700 cells were seeded in 96-well flat bottom culture plates in 100 µL. After 24 h, the cells were treated with 0.1% DMSO vehicle control or test compounds diluted in a medium using a 1:2 dilution-series, starting at 100 µM. The plates were further incubated for 72 h. The cell viability was measured after the addition of 10% alamarBlue reagent per well (cat. no. DAL1100, Thermo Fisher Scientific). The fluorescence intensity (excitation 560 nm and emission 590 nm) was measured after 4 h by the use of a H1 Hybrid Multi-Mode reader.

A further assay has as its system Hsp90, Hsp70. Briefly: Western blotting of Hsp90 and Hsp70 (heat shock response). Type of assay: cell-based. As to conditions: Western blot, 24 h; four cancer cell lines; 17-AAG 2 μM. The procedure:
(§3) The cells in the RIPA buffer were placed on ice for 20 min, and were then sonicated in ice cold water for 5 min. […] Equal amounts of protein were separated by 10% SDS-PAGE, and were then transferred onto a nitrocellulose membrane (cat. no. NBA 083C001EA, Protran) using a wet transfer system (Bio-Rad) or semidry Transferblot Turbo Transfer System (Bio-Rad). After the transfer, the membranes were blocked for 30 min in 5% skimmed milk dissolved in 1× TBST, and then incubated with 1:2000 primary antibodies in 5% BSA in TBST at 4 °C overnight.
(§4) The next day, the membranes were washed three times in TBST for 10 min, and then incubated with secondary antibodies (1:5000) diluted in 5% skimmed milk in TBST for 1 h at RT. […] All of the antigens and molecular weights in kDa are labelled next to the blots on the figures. Uncropped Western blot data are attached as Figure S6.

The next assay concerns HIF-1α. Put plainly: Western blotting of HIF-1α in nuclear extracts. As to conditions: Western blot of nuclear extracts, 24 h; K-RasG12V-transfected HEK and MDA-MB-231 cells; conglobatin A 5 or 10 μM, 17-AAG 2 μM. Type of assay: cell-based. The procedure: as §3, §4

For orientation: IC50 means the concentration that inhibits the measured activity by half. High values mean weaker potency in that assay, low ones greater potency in that assay.

In the case of `CC[C@@H](C(=O)[C@@H](C)[C@@H](O)[C@H](C)[C@@H]1O[C@@H]([C@@H](CC)C(=O)O)CC[C@@H]1C)[C@H]1O[C@]2(C=C[C@@H](O)[C@]3(CC[C@@](C)([C@H]4CC[C@](O)(CC)[C@H](C)O4)O3)O2)[C@H](C)C[C@@H]1C` [salinomycin], in the assay on K-RasG12V nanoclustering, the “K-RasG12V nanoclustering-FRET” value was “blocks K-RasG12V-”. Further, in the assay on H-RasG12V nanoclustering, the “H-RasG12V nanoclustering-FRET” value was “not H-RasG12V-nanoclustering”.

Take `COC(=O)c1ccc(O)c(NC(=O)COc2ccc(C34CC5CC(CC(C5)C3)C4)cc2)c1` [CAY10585]: the “K-RasG12V nanoclustering-FRET” value in the assay with K-RasG12V nanoclustering is “selectively decreased”. In the assay on H-RasG12V nanoclustering, the “H-RasG12V nanoclustering-FRET” value is “not H-RasG12V nanoclustering-FRET”. For the same molecule, the Gal3 levels result in the assay with Gal3 is given as “decreased the Gal3 levels”.

For `C=CCNC1=C2C[C@@H](C)C[C@H](OC)[C@H](O)[C@@H](C)/C=C(\C)[C@H](OC(N)=O)[C@@H](OC)/C=C\C=C(/C)C(=O)NC(=CC1=O)C2=O` [17-AAG, 17-allylamino-17-demethoxy-geldanamycin, reference compound], the “normalized RLU” value on Hsp90/Cdc37 [1] (RLU normalized to DMSO (=1.00)) amounted to 0.91. Moreover, the “Average RLU” value on Hsp90/Cdc37 [1] (average of 3 wells (DMSO 248028)) stood at 225640 RLU. In addition, in the assay with Hsp90/Cdc37 [2] (DMSO = 1.00), the “normalized RLU (FIMM Screening-1)” value worked out at 0.89 and the “normalized RLU (FIMM Screening-2, scaffold based)” value stood at 0.89. Further, in the assay on Hsp90/Cdc37 [2] (mean of 3 wells, DMSO 50019), the “Average RLU (FIMM Screening-1)” value is recorded as 44367 RLU. Further, the “Average RLU (FIMM Screening-2, scaffold based)” value in the assay on Hsp90/Cdc37 [2] (mean of 3 wells, DMSO 51006) amounted to 45379 RLU. The “competition with FITC-geldanamycin (ATP-pocket binding, polarization signal)” value at Hsp90α (N-terminal) is reported as “significantly reduced the signal”. Further, the “K-RasG12V nanoclustering-FRET” value in the assay on K-RasG12V nanoclustering is recorded as “same selectivity”. The IC50 in the assay with MDA-MB-231 cells was found to be 1000 nM. The “induction of Hsp90 or Hsp70 expression (heat shock response)” value in the assay with Hsp90, Hsp70 was “increase in Hsp90 and, in particular, Hsp70”. Also, the “nuclear levels of HIF-1α” value in the assay with HIF-1α is listed as “decreased the nuclear levels of HIF-1α”.
